{
  "source": "patent US9370515B2",
  "about": "“Mixed lineage kinase inhibitors and method of treatments” (CALIFIA BIO, INC., priority 2013, dated 2016)",
  "data": [
    {"target": "MLK-3 (Homo sapiens, UniProt Q16584)", "sequence (Q16584 whole entry)": "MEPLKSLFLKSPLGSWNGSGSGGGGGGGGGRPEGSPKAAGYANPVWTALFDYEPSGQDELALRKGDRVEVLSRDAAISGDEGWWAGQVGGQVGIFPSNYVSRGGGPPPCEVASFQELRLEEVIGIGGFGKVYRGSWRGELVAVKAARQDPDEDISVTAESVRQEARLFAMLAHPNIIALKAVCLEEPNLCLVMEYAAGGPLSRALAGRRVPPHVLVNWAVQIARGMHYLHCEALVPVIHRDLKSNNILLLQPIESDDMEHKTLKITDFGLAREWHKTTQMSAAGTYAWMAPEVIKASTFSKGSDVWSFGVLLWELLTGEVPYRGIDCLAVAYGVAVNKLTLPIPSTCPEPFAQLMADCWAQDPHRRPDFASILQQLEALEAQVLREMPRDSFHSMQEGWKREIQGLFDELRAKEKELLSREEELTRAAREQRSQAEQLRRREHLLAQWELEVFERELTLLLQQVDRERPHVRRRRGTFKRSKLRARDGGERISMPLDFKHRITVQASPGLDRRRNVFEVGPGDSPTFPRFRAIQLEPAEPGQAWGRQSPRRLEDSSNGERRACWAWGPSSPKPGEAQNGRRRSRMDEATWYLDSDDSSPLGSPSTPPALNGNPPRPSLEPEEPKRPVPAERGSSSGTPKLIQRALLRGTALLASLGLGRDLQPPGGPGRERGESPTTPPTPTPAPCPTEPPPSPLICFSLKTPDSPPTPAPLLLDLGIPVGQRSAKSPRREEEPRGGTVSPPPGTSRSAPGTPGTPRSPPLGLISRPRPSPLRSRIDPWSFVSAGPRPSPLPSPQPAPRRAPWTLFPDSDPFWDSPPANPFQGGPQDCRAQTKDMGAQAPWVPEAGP", "experiment": "Biochemical assay for the inhibition of kinase activity for MLK-3 (33P-ATP, HOTSPOT filter binding)", "conditions": "activated MLK-3 20 nM, ATP 50 μM, myelin basic protein 20 μM, 20 minutes room temperature", "experimental": "Biochemical Assay for the Inhibition of Kinase Activity for MLK-3: Myelin basic protein (20 μM final concentration) is dissolved in 20 mM Hepes (pH 7.5) containing […], […], 0.02% Brij35, 0.02 mg/ml BSA, 0.1 μM Na3VO4, 2 mM DTT, and 1% DMSO. Activated MLK-3 is added and mixed (20 nM final concentration), and inhibitors are added in DMSO. ^33P-ATP (specific activity 500 μCi/μL) is delivered into the reaction mixture to initiate the reaction (ATP concentration is 50 μM) and the mixture is incubated at room temperature for 20 minutes. % Activity is determined using a proprietary HOTSPOT™ microfluidic filter binding technology. See, Expert Opin. Drug Discov. 2008 June; 3(6): 607-621.", "units": {"IC50": "nM"}, "values": [
      {"smiles": "Oc1ccc(-c2cnc3ccc(N[C@H]4CC[C@H](O)CC4)nn23)cc1", "note": "[Compound 102, trans-4-(6-(4-hydroxycyclohexylamino)imidazo[1,2-b]pyridazin-3-yl)phenol]", "IC50": "< 5000"},
      {"smiles": "COc1cc(Nc2ccc3ncc(-c4cc5cccc(OC)c5s4)n3n2)ccc1OC(F)F", "note": "[Compound 183, N-(4-(difluoromethoxy)-3-methoxyphenyl)-3-(7-methoxybenzo[b]thiophen-2-yl)imidazo[1,2-b]pyridazin-6-amine]", "IC50": "< 5000"},
      {"smiles": "Oc1cccc(-c2cnc3ccc(N[C@H]4CC[C@H](O)CC4)nn23)c1", "note": "[Compound 101, trans-3-(6-(4-hydroxycyclohexylamino)imidazo[1,2-b]pyridazin-3-yl)phenol]", "IC50": "< 5000"},
      {"smiles": "COc1ccc(Nc2ccc3ncc(-c4cc5cccc(O)c5s4)n3n2)cc1OC", "note": "[Compound 79, 2-(6-(3,4-dimethoxyphenylamino)imidazo[1,2-b]pyridazin-3-yl)benzo[b]thiophen-7-ol]", "IC50": "< 100"},
      {"smiles": "CCOc1ccc(Nc2ccc3ncc(-c4cc5cccc(OC)c5s4)n3n2)cc1OC", "note": "[Compound 181, N-(4-ethoxy-3-methoxyphenyl)-3-(7-methoxybenzo[b]thiophen-2-yl)imidazo[1,2-b]pyridazin-6-amine]", "IC50": "100 to 500"},
      {"smiles": "CN1CCN(c2cccc(Nc3ccc4ncc(-c5cc6ccccc6s5)n4n3)c2)CC1", "note": "[Compound 13, 3-(benzo[b]thiophen-2-yl)-N-(3-(4-methylpiperazin-1-yl)phenyl)imidazo[1,2-b]pyridazin-6-amine]", "IC50": "< 5000"},
      {"smiles": "COc1cc2cc(-c3cnc4ccc(N(C)[C@H]5CC[C@H](O)CC5)nn34)sc2cc1OC", "note": "[Compound 177, trans-4-(N-(3-(5,6-dimethoxybenzo[b]thiophen-2-yl)imidazo[1,2-b]pyridazin-6-yl)-N-methylamino)cyclohexanol]", "IC50": "< 100"},
      {"smiles": "COc1ccc(Nc2ccc3ncc(-c4cc5cncc(OC)c5s4)n3n2)cc1OC", "note": "[Compound 210, N-(3,4-dimethoxyphenyl)-3-(7-methoxythieno[3,2-c]pyridin-2-yl)imidazo[1,2-b]pyridazin-6-amine]", "IC50": "< 5000"},
      {"smiles": "COc1ccc(Nc2ccc3ncc(-c4ccc(CO)s4)n3n2)cc1OC", "note": "[Compound 84, (5-(6-(3,4-dimethoxyphenylamino)imidazo[1,2-b]pyridazin-3-yl)thiophen-2-yl)methanol]", "IC50": "< 5000"},
      {"smiles": "COc1cc2cc(-c3cnc4ccc(N[C@H]5CC[C@H](OC)CC5)nn34)sc2cc1OC", "note": "[Compound 201, trans-3-(5,6-dimethoxybenzo[b]thiophen-2-yl)-N-(4-methoxycyclohexyl)imidazo[1,2-b]pyridazin-6-amine]", "IC50": "100 to 500"},
      {"smiles": "COc1ccc2sc(-c3cnc4ccc(Nc5ccc(OC)c(OC)c5)nn34)cc2c1", "note": "[Compound 167, 3-(5-methoxybenzo[b]thiophen-2-yl)-N-(3,4-dimethoxyphenyl)imidazo[1,2-b]pyridazin-6-amine]", "IC50": "100 to 500"},
      {"smiles": "COC(=O)C1CCCN(c2ccc3ncc(-c4cc5ccccc5s4)n3n2)C1", "note": "(centres unmarked) [Compound 131, methyl 1-(3-(benzo[b]thiophen-2-yl)imidazo[1,2-b]pyridazin-6-yl)piperidine-3-carboxylate]", "IC50": "< 5000"},
      {"smiles": "CCCOc1ccc(Nc2ccc3ncc(-c4cc5cccc(OC)c5s4)n3n2)cc1OC", "note": "[Compound 182, N-(3-methoxy-4-propoxyphenyl)-3-(7-methoxybenzo[b]thiophen-2-yl)imidazo[1,2-b]pyridazin-6-amine]", "IC50": "< 5000"},
      {"smiles": "CCCNc1ccc2ncc(-c3ccc4[nH]ccc4c3)n2n1", "note": "[Compound 140, 3-(1H-indol-5-yl)-N-propylimidazo[1,2-b]pyridazin-6-amine]", "IC50": "< 5000"},
      {"smiles": "O[C@H]1CC[C@H](Nc2ccc3ncc(-c4ccc5ccccc5c4)n3n2)CC1", "note": "[Compound 161, trans-4-(3-(naphthalen-3-yl)imidazo[1,2-b]pyridazin-6-ylamino)cyclohexanol]", "IC50": "100 to 500"},
      {"smiles": "COc1ccc(Nc2ccc3ncc(-c4cc5ncccc5s4)n3n2)cc1OC", "note": "[Compound 208, N-(3,4-dimethoxyphenyl)-3-(thieno[3,2-b]pyridin-2-yl)imidazo[1,2-b]pyridazin-6-amine]", "IC50": "< 5000"},
      {"smiles": "COc1ccc(Nc2ccc3ncc(-c4cccc(O)c4)n3n2)cc1OC", "note": "[Compound 9, 3-(6-(3,4-dimethoxyphenylamino)imidazo[1,2-b]pyridazin-3-yl)phenol]", "IC50": "< 5000"},
      {"smiles": "CN1CCN(CCCNc2ccc3ncc(-c4cc5ccccc5s4)n3n2)CC1", "note": "[Compound 136, 3-(benzo[b]thiophen-2-yl)-N-(3-(4-methylpiperazin-1-yl)propyl)imidazo[1,2-b]pyridazin-6-amine]", "IC50": "< 5000"},
      {"smiles": "CN1CCN(c2cccc(Nc3ccc4ncc(-c5ccc6[nH]ccc6c5)n4n3)c2)CC1", "note": "[Compound 56, 3-(1H-indol-5-yl)-N-(3-(4-methylpiperazin-1-yl)phenyl)imidazo[1,2-b]pyridazin-6-amine]", "IC50": "500 to 1000"},
      {"smiles": "COc1cc(Nc2ccc3ncc(-c4cc5cccc(OC)c5s4)n3n2)ccc1OC(F)(F)F", "note": "[Compound 184, N-(3-methoxy-4-(trifluoromethoxy)phenyl)-3-(7-methoxybenzo[b]thiophen-2-yl)imidazo[1,2-b]pyridazin-6-amine]", "IC50": "< 5000"},
      {"smiles": "COc1cc2sc(-c3cnc4ccc(N[C@H]5CC[C@H](O)CC5)nn34)cc2c(OC)c1OC", "note": "[Compound 176, trans-4-(3-(4,5,6-trimethoxybenzo[b]thiophen-2-yl)imidazo[1,2-b]pyridazin-6-ylamino)cyclohexanol]", "IC50": "100 to 500"},
      {"smiles": "COc1ccc2cc(-c3cnc4ccc(Nc5ccc(OC)c(OC)c5)nn34)sc2c1", "note": "[Compound 72, 3-(6-methoxybenzo[b]thiophen-2-yl)-N-(3,4-dimethoxyphenyl)imidazo[1,2-b]pyridazin-6-amine]", "IC50": "100 to 500"},
      {"smiles": "COc1cc2cc(-c3cnc4ccc(Nc5ccc(OCCCO)c(OC)c5)nn34)sc2cc1OC", "note": "[Compound 70, 3-(4-(3-(5,6-dimethoxybenzo[b]thiophen-2-yl)imidazo[1,2-b]pyridazin-6-ylamino)-2-methoxyphenoxy)propan-1-ol]", "IC50": "< 100"},
      {"smiles": "COc1ccc(Nc2ccc3ncc(-c4cc5cncc(O)c5s4)n3n2)cc1OC", "note": "[Compound 211, 2-(6-(3,4-dimethoxyphenylamino)imidazo[1,2-b]pyridazin-3-yl)thieno[3,2-c]pyridin-7-ol]", "IC50": "< 5000"},
      {"smiles": "COc1cc2cc(-c3cnc4ccc(N[C@H]5CC[C@](C)(O)CC5)nn34)sc2cc1OC", "note": "[Compound 173, (1r,4r)-4-(3-(5,6-dimethoxybenzo[b]thiophen-2-yl)imidazo[1,2-b]pyridazin-6-ylamino)-1-methylcyclohexanol]", "IC50": "< 100"},
      {"smiles": "O=c1cc(Nc2ccc3ncc(-c4cc5ccccc5s4)n3n2)cc[nH]1", "note": "[Compound 41, 4-(3-(benzo[b]thiophen-2-yl)imidazo[1,2-b]pyridazin-6-ylamino)pyridin-2-ol]", "IC50": "500 to 1000"},
      {"smiles": "O=c1cccc(Nc2ccc3ncc(-c4cc5ccccc5s4)n3n2)[nH]1", "note": "[Compound 45, 6-(3-(benzo[b]thiophen-2-yl)imidazo[1,2-b]pyridazin-6-ylamino)pyridin-2-ol]", "IC50": "< 5000"},
      {"smiles": "COc1ccc(Nc2ccc3ncc(-c4cc5cccc(OC(F)(F)F)c5s4)n3n2)cc1OC", "note": "[Compound 188, N-(3,4-dimethoxyphenyl)-3-(7-(trifluoromethoxy)benzo[b]thiophen-2-yl)imidazo[1,2-b]pyridazin-6-amine]", "IC50": "< 5000"},
      {"smiles": "OCCCCNc1ccc2ncc(-c3cc4ccccc4s3)n2n1", "note": "[Compound 110, 4-(3-(benzo[b]thiophen-2-yl)imidazo[1,2-b]pyridazin-6-ylamino)butan-1-ol]", "IC50": "100 to 500"},
      {"smiles": "COc1ccc2cc(-c3cnc4ccc(Nc5ccc(OC)c(OC)c5)nn34)[nH]c2c1", "note": "[Compound 4, 3-(6-methoxy-1H-indol-2-yl)-N-(3,4-dimethoxyphenyl)imidazo[1,2-b]pyridazin-6-amine]", "IC50": "100 to 500"},
      {"smiles": "COc1cc(Nc2ccc3ncc(-c4cc5ccccc5s4)n3n2)ccc1O", "note": "[Compound 24, 4-(3-(benzo[b]thiophen-2-yl)imidazo[1,2-b]pyridazin-6-ylamino)-2-methoxyphenol]", "IC50": "100 to 500"},
      {"smiles": "COc1ccc2c(c1)cc(-c1cnc3ccc(Nc4ccc(OC)c(OC)c4)nn13)n2C", "note": "[Compound 193, 3-(5-methoxy-1-methyl-1H-indol-2-yl)-N-(3,4-dimethoxyphenyl)imidazo[1,2-b]pyridazin-6-amine]", "IC50": "< 5000"},
      {"smiles": "O=C(O)c1cccc(Nc2ccc3ncc(-c4cc5ccccc5s4)n3n2)c1", "note": "[Compound 26, 3-(3-(benzo[b]thiophen-2-yl)imidazo[1,2-b]pyridazin-6-ylamino)benzoic acid]", "IC50": "100 to 500"},
      {"smiles": "O=C(O)c1ccc(Nc2ccc3ncc(-c4cc5ccccc5s4)n3n2)cc1", "note": "[Compound 25, 4-(3-(benzo[b]thiophen-2-yl)imidazo[1,2-b]pyridazin-6-ylamino)benzoic acid]", "IC50": "500 to 1000"},
      {"smiles": "O[C@H]1CC[C@H](Nc2ccc3ncc(-c4ccc5cc(F)ccc5c4)n3n2)CC1", "note": "[Compound 162, trans-4-(3-(2-fluoronaphthalen-6-yl)imidazo[1,2-b]pyridazin-6-ylamino)cyclohexanol]", "IC50": "500 to 1000"},
      {"smiles": "OCCCNc1ccc2ncc(-c3cc4ccccc4s3)n2n1", "note": "[Compound 109, 3-(3-(benzo[b]thiophen-2-yl)imidazo[1,2-b]pyridazin-6-ylamino)propan-1-ol]", "IC50": "100 to 500"},
      {"smiles": "COc1cc2cc(-c3cnc4ccc(N[C@H]5CC[C@H](O)CC5)nn34)sc2c(OC)c1OC", "note": "[Compound 179, trans-4-(3-(5,6,7-trimethoxybenzo[b]thiophen-2-yl)imidazo[1,2-b]pyridazin-6-ylamino)cyclohexanol]", "IC50": "< 100"},
      {"smiles": "COc1cncc2cc(-c3cnc4ccc(N[C@H]5CC[C@H](O)CC5)nn34)sc12", "note": "[Compound 213, trans-4-(3-(7-methoxythieno[3,2-c]pyridin-2-yl)imidazo[1,2-b]pyridazin-6-ylamino)cyclohexanol]", "IC50": "< 100"}
    ]}
  ]
}
